Test results from US10253039B2, “Inhibitors of bacterial DNA gyrase with efficacy against gram-negative bacteria” (priority 2014, dated 2019).
Values after ≈ are worked out from the molar mass of the structure shown. Where two headings read alike, the source gives them in different places.

How the values were obtained:
Type in all cases: cell-based
E. coli BW25113 = experiment: MIC, microdilution in 96-well plates; settings: Escherichia coli, read-out: MIC
In short: (§1)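 CLSI microdilution, LB, 1:10000 inoculum of actively growing culture; 2-fold dilution series in triplicate, DMSO control lane; 37° C., shaking, 16-18 h; endpoint = no visible growth.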

Edwardsiella tarda = experiment: MIC, microdilution in 96-well plates
In short: as §1

E. coli JW5503 (deltolC) = experiment: MIC, 20-strain panel; settings: Escherichia coli
In short: as §1

E. coli MG1655 = experiment: MIC, 20-strain panel; settings: Escherichia coli, read-out: MIC
In short: as §1

[1] = system: Klebsiella pneumoniae subsp. pneumoniae; experiment: MIC, 20-strain panel
In short: as §1

[2] = system: Salmonella enterica subsp. enterica typhimurium; experiment: MIC, 20-strain panel
In short: as §1

Shigella flexneri = experiment: MIC, 20-strain panel
In short: as §1

[3] = system: Staphylococcus aureus subsp. aureus; experiment: MIC, 20-strain panel; settings: read-out: MIC
In short: as §1

[4] = system: Staphylococcus epidermidis; experiment: MIC, 20-strain panel
In short: as §1

[5] = system: Staphylococcus saprophyticus subsp. saprophyticus; experiment: MIC, 20-strain panel
In short: as §1

Streptococcus agalactiae = experiment: MIC, 20-strain panel
In short: as §1

Streptococcus pyogenes = experiment: MIC, 20-strain panel
In short: as §1

[6] = E: Klebsiella pneumoniae subsp. pneumoniae
[7] = F: Salmonella enterica subsp. enterica Typhimurium
[8] = H: Staphylococcus aureus subsp. aureus
[9] = Klebsiella pneumoniae subsp. pneumoniae
[10] = Salmonella enterica subsp. enterica Typhimurium
[11] = Staphylococcus aureus subsp. aureus

SMILES | MIC (E. coli BW25113; BW25113, B: E. coli BW25113) | MIC (Edwardsiella tarda; D: Edwardsiella tarda) | MIC (E. coli JW5503 (deltolC); C: E. coli JW5503 (deltolC)) | MIC (E. coli MG1655; MG1655, A: E. coli MG1655) | MIC [1, 6] | MIC [2, 7] | MIC (Shigella flexneri; G: Shigella flexneri) | MIC [3, 8] | MIC [4] | MIC [5] | MIC (Streptococcus agalactiae) | MIC (Streptococcus pyogenes) | MIC (E. coli BW25113; BW25113, E. coli BW25113) | MIC (Edwardsiella tarda) | MIC (E. coli JW5503 (deltolC); E. coli JW5503 (deltolC)) | MIC (E. coli MG1655; MG1655, E. coli MG1655) | MIC [1, 9] | MIC [2, 10] | MIC (Shigella flexneri) | MIC [3, 11]
CC(C)Oc1ccc(CN2CC[C@@H](NS(=O)(=O)c3ccc(Cl)c(C#N)c3)C2)cc1 [Compound 118] | > 8 mg/L | > 8 mg/L | > 8 mg/L | > 8 mg/L | > 8 mg/L | > 8 mg/L | > 8 mg/L | > 8 mg/L | > 8 mg/L | > 8 mg/L | > 8 mg/L | > 8 mg/L | – | – | – | – | – | – | – | –
N#Cc1cc(S(=O)(=O)N[C@@H]2CCN(Cc3ccc(OC4CC4)cc3)C2)ccc1Cl [Compound 119] | > 8 mg/L | > 8 mg/L | > 8 mg/L | > 8 mg/L | > 8 mg/L | > 8 mg/L | > 8 mg/L | > 8 mg/L | > 8 mg/L | > 8 mg/L | > 8 mg/L | > 8 mg/L | – | – | – | – | – | – | – | –
N#Cc1cc(S(=O)(=O)N[C@@H]2CCN(Cc3ccc(-c4ccccc4)cc3)C2)ccc1Cl [Compound 120] | > 8 mg/L | > 8 mg/L | ~8 mg/L (≈ 17.7 µM) | > 8 mg/L | > 8 mg/L | > 8 mg/L | > 8 mg/L | > 8 mg/L | > 8 mg/L | > 8 mg/L | > 8 mg/L | > 8 mg/L | – | – | – | – | – | – | – | –
Cc1ccncc1S(=O)(=O)N[C@@H]1CCN(Cc2ccc(OC(C)C)cc2)C1 [Compound 121] | > 8 mg/L | > 8 mg/L | ~8 mg/L (≈ 20.5 µM) | > 8 mg/L | > 8 mg/L | > 8 mg/L | > 8 mg/L | > 8 mg/L | > 8 mg/L | > 8 mg/L | > 8 mg/L | > 8 mg/L | – | – | – | – | – | – | – | –
O=S(=O)(N[C@@H]1CCN(Cc2ccc(-c3ccccc3)cc2)C1)c1cnccc1Cl [Compound 122] | > 8 mg/L | > 8 mg/L | 4 mg/L (≈ 9.35 µM) | > 8 mg/L | > 8 mg/L | > 8 mg/L | > 8 mg/L | > 8 mg/L | ~8 mg/L (≈ 18.7 µM) | > 8 mg/L | > 8 mg/L | > 8 mg/L | – | – | – | – | – | – | – | –
Cc1nn(C)c2ncc(S(=O)(=O)N[C@@H]3CCN(Cc4ccc(OC(C)C)cc4)C3)cc12 [Compound 123] | > 8 mg/L | > 8 mg/L | > 8 mg/L | > 8 mg/L | > 8 mg/L | > 8 mg/L | > 8 mg/L | > 8 mg/L | > 8 mg/L | > 8 mg/L | > 8 mg/L | > 8 mg/L | – | – | – | – | – | – | – | –
N#Cc1cccc(S(=O)(=O)N[C@@H]2CCN(Cc3cn(-c4ccccc4)nn3)C2)c1 [Compound 124] | > 8 mg/L | > 8 mg/L | > 8 mg/L | > 8 mg/L | > 8 mg/L | > 8 mg/L | > 8 mg/L | > 8 mg/L | > 8 mg/L | > 8 mg/L | > 8 mg/L | > 8 mg/L | – | – | – | – | – | – | – | –
O=S(=O)(N[C@@H]1CCN(Cc2ccn(-c3ccccc3)n2)C1)c1cccc(C(F)(F)F)c1 [Compound 125] | > 8 mg/L | > 8 mg/L | > 8 mg/L | > 8 mg/L | > 8 mg/L | > 8 mg/L | > 8 mg/L | > 8 mg/L | > 8 mg/L | > 8 mg/L | > 8 mg/L | > 8 mg/L | – | – | – | – | – | – | – | –
N#Cc1cccc(S(=O)(=O)N[C@@H]2CCN(Cc3ccn(-c4ccccc4)n3)C2)c1 [Compound 126] | > 8 mg/L | > 8 mg/L | > 8 mg/L | > 8 mg/L | > 8 mg/L | > 8 mg/L | > 8 mg/L | > 8 mg/L | > 8 mg/L | > 8 mg/L | > 8 mg/L | > 8 mg/L | – | – | – | – | – | – | – | –
COc1ccccc1-c1ccc(CN2CC[C@@H](NS(=O)(=O)c3cccc(C#N)c3)C2)cc1 [Compound 127] | > 8 mg/L | > 8 mg/L | 4 mg/L (≈ 8.94 µM) | > 8 mg/L | > 8 mg/L | > 8 mg/L | > 8 mg/L | > 8 mg/L | > 8 mg/L | > 8 mg/L | > 8 mg/L | > 8 mg/L | – | – | – | – | – | – | – | –
O=S(=O)(N[C@@H]1CCN(Cc2ccc(OC3CC3)cc2)C1)c1cc(C(F)(F)F)cc(C(F)(F)F)c1 [Compound 128] | > 8 mg/L | > 8 mg/L | 8 mg/L (≈ 15.7 µM) | > 8 mg/L | > 8 mg/L | > 8 mg/L | > 8 mg/L | > 8 mg/L | > 8 mg/L | > 8 mg/L | > 8 mg/L | > 8 mg/L | – | – | – | – | – | – | – | –
O=S(=O)(N[C@@H]1CCN(Cc2cn(-c3ccccc3)nn2)C1)c1cccc(OC(F)(F)F)c1 [Compound 129] | – | – | – | – | – | – | – | – | > 8 mg/L | > 8 mg/L | > 8 mg/L | > 8 mg/L | > 8 mg/L | > 8 mg/L | > 8 mg/L | > 8 mg/L | > 8 mg/L | > 8 mg/L | > 8 mg/L | > 8 mg/L
O=S(=O)(N[C@@H]1CCN(Cc2ccc(OC3CC3)cc2)C1)c1ncc[nH]1 [Compound 130] | – | – | – | – | – | – | – | – | > 8 mg/L | > 8 mg/L | > 8 mg/L | > 8 mg/L | > 8 mg/L | > 8 mg/L | ~8 mg/L (≈ 22.1 µM) | > 8 mg/L | > 8 mg/L | ~8 mg/L (≈ 22.1 µM) | > 8 mg/L | > 8 mg/L
Cc1ccc(S(=O)(=O)N[C@@H]2CCN(Cc3ccc(-c4ccccc4)cc3)C2)cc1C#N [Compound 131] | – | – | – | – | – | – | – | – | > 8 mg/L | > 8 mg/L | > 8 mg/L | > 8 mg/L | > 8 mg/L | > 8 mg/L | 8 mg/L (≈ 18.5 µM) | > 8 mg/L | > 8 mg/L | > 8 mg/L | > 8 mg/L | > 8 mg/L
O=S(=O)(N[C@@H]1CCN(Cc2ccc(OC3CC3)cc2)C1)c1ccc(Cl)cn1 [Compound 132] | – | – | – | – | – | – | – | – | > 8 mg/L | > 8 mg/L | > 8 mg/L | > 8 mg/L | > 8 mg/L | > 8 mg/L | > 8 mg/L | > 8 mg/L | > 8 mg/L | > 8 mg/L | > 8 mg/L | > 8 mg/L
CC(=O)c1cc(S(=O)(=O)N[C@@H]2CCN(Cc3ccc(OC4CC4)cc3)C2)ccc1C [Compound 133] | – | – | – | – | – | – | – | – | > 8 mg/L | > 8 mg/L | > 8 mg/L | > 8 mg/L | > 8 mg/L | > 8 mg/L | > 8 mg/L | > 8 mg/L | > 8 mg/L | > 8 mg/L | > 8 mg/L | > 8 mg/L
